From PubChem BioAssay AID1996 come the findings set out here.

Molecules are shown by their SMILES. ≈ marks a conversion by molar mass, not a printed value.

The conditions of this data set: buffer; pH 7.4; 200.0 µM.
For `CC(=O)c1c(-c2ccc(C)cc2)nc2c3ccccc3ccn12`, the kinetic solubility was under 0.3 µg/mL.
The value for `CC(OC(=O)C1CC2CCCC(C1)C2=O)C(=O)Nc1cccc([N+](=O)[O-])c1` (stereo unspecified) was over 56.2 µg/mL.
The compound `N#CC1(NC(=O)COc2cccnc2[N+](=O)[O-])CCCCC1` registered a solubility (kinetic) of over 45.6 µg/mL.
For the compound `CCN(CC)CCCNc1ncnc2scc(-c3ccc(F)cc3)c12`, the solubility (kinetic) was over 53.8 µg/mL.
For `Cc1cc(NCc2ccc(F)cc2)nc2cc(Cl)ccc12`, the solubility (kinetic) came out at 0.8 µg/mL (≈ 2.66 µM).
The value for `O=C(Nc1ccc(OC(F)(F)F)cc1)c1ccc2nc[nH]c2c1` was 14.9 µg/mL (≈ 46.4 µM); that for `Cc1ccc(O)c(NC(=O)c2ccc3c(c2)C(=O)N(CC(C)C)C3=O)c1` was under 0.4 µg/mL; that for `CC12CC3CC(C)(C1)CC(C(=O)NCc1cccnc1)(C3)C2` was over 44.8 µg/mL.
The value for `O=C(COC(=O)c1cc(S(=O)(=O)N2CCOCC2)ccc1F)NCc1ccc2c(c1)OCO2` was over 72.1 µg/mL.
The value for `CCCCn1c(N)c(N(CCOC)C(=O)CSc2nnc(-c3ccco3)n2CC)c(=O)[nH]c1=O` was over 73.7 µg/mL; that for `O=C1c2ccccc2C(Nc2ccccc2)N1Cc1ccc2c(c1)OCO2` (stereo unspecified) was 0.9 µg/mL (≈ 2.51 µM).
For the compound `C[N+](C)(C)CCOc1ccc([N+](=O)[O-])cc1.[Br-]`, the solubility (kinetic) is over 45.8 µg/mL.
The compound `CCn1cc(CN(C)S(=O)(=O)c2cccc([N+](=O)[O-])c2)cn1` gave a kinetic solubility of over 48.7 µg/mL.
`Cc1ccc(NC(=O)Nc2ccc3c(c2)CCC3)cc1C`: the kinetic solubility is under 0.3 µg/mL.
The figure for `O=C(CC1Sc2ccccc2NC1=O)NCc1ccccc1` (stereo unspecified) is 0.4 µg/mL (≈ 1.28 µM); for `O=C(COc1ccc(-n2ccnc2)cc1)Nc1cccc(Cl)c1` it is 23.7 µg/mL (≈ 72.3 µM).
Consider `c1ccc2[nH]c(-c3ccc4c(c3)OCO4)nc2c1`, for which the solubility (kinetic) turned out to be 34.4 µg/mL (≈ 144 µM).
Compound `O=C(O)c1ccc2c(c1)C(=O)N(c1cc([N+](=O)[O-])ccn1)C2=O` returned a solubility (kinetic) of over 47 µg/mL.
Regarding `COc1cc(Cl)c(C)cc1NC(=O)CCN1C(=O)NC(C)(C)C1=O`, the solubility (kinetic) is over 53.1 µg/mL.
The compound `Cc1ccc(/C(=C\CN2CCCC2)c2ccccn2)cc1.Cl` showed a kinetic solubility of over 47.2 µg/mL.
The figure for `CCN(CC)c1ccc(N)cc1S(=O)(=O)Nc1ccccc1OC` is 41.8 µg/mL (≈ 120 µM).
`Cc1cccc(NCc2cccc3ccccc23)n1` displayed a solubility (kinetic) of 9.8 µg/mL (≈ 39.5 µM).
As to `O=C1CC(/C=C/c2cccnc2)=Nc2ccccc2N1`, the solubility (kinetic) amounted to 24.4 µg/mL (≈ 92.7 µM).
`O=C(Nc1ccc(NC(=O)c2ccco2)cc1)c1ccco1` displayed a solubility (kinetic) of 2.5 µg/mL (≈ 8.44 µM).
As for `CC1CC(C)(C)NC(=S)N1CC(=O)NCc1ccc2c(c1)OCO2` (stereo unspecified), the solubility (kinetic) amounted to 36.2 µg/mL (≈ 104 µM).
The value for `O=C1CNC(=O)N1` was over 15 µg/mL; that for `CCc1nn(CC(=O)N2CCC(C)CC2)c(=O)c2cccn12` was over 45.4 µg/mL; that for `CCN(CC)C1CCS(=O)(=O)C1.Cl` (stereo unspecified) was over 34.2 µg/mL.
With `Cc1ccc(NC(=O)Cn2c(C)csc2=O)cc1`, the solubility (kinetic) is over 39.3 µg/mL.
The compound `Cc1cccc(NC(=O)C(C)Oc2ccc(C)nc2[N+](=O)[O-])c1` (stereo unspecified) came in with a solubility (kinetic) of over 47.3 µg/mL.
The figure for `COc1ccc(OCCC(=O)OCC(=O)c2ccc[nH]2)cc1` is over 45.5 µg/mL; for `Cc1cccc(/C(N)=N/OC(=O)CCCc2ccccc2)c1` it is 1.8 µg/mL (≈ 6.07 µM); for `CC1CCC2(CC1)SCC(=O)N2c1ccc(F)cc1` (stereo unspecified) it is 39.5 µg/mL (≈ 141 µM).
With `N#CCCN(C(=O)CSc1nc2ccccc2c(=O)[nH]1)c1ccc(F)cc1`, the kinetic solubility was over 57.4 µg/mL.
For `COC(=O)C1=C(C)NC(=O)NC1c1c(O)ccc2ccccc12` (stereo unspecified), the kinetic solubility was determined as 15.2 µg/mL (≈ 48.7 µM).
The figure for `O=C(Nc1cccnc1Cl)c1noc2c1CCc1ccccc1-2` is under 0.2 µg/mL.
The value for `CCCCNC(=O)COC(=O)c1ccc(N(C)C)cc1` was over 41.8 µg/mL.
`COCC(C)NC(=O)C(C)N1c2cccc3cccc(c23)S1(=O)=O` (stereo unspecified) yielded a kinetic solubility of 50.9 µg/mL (≈ 146 µM).
In turn, `O=C(NC12CC3CC(CC(C3)C1)C2)c1cncc(Br)c1` displayed a solubility (kinetic) of 8.5 µg/mL (≈ 25.4 µM).
The figure for `Cc1ccc(Nc2c([N+](=O)[O-])c(=O)oc3ccccc23)cc1` is 5.8 µg/mL (≈ 19.6 µM); for `COC(=O)c1scc(C)c1NC(=O)c1cccc(C#N)c1` it is over 45 µg/mL.
The figure for `COc1ccc(CNS(=O)(=O)NCc2ccccc2F)cc1` is 22.3 µg/mL (≈ 68.7 µM); for `Cc1ccnc(SCC(N)=O)n1` it is over 27.5 µg/mL.
The figure for `O=C(Nc1ccc(F)cc1)c1ccc2ncsc2c1` is 10.3 µg/mL (≈ 37.8 µM); for `CC(Oc1ccccc1)C(=O)N1CCc2ccccc2C1` (stereo unspecified) it is over 42.2 µg/mL; for `COc1cc(N)c(Cl)cc1C(=O)OCC(=O)NC1CCCC1` it is over 49 µg/mL.
Regarding `CC1CCN(CC(=O)N2CCN(c3ccccc3)CC2)CC1`, the kinetic solubility amounted to 40.8 µg/mL (≈ 135 µM).
The figure for `COc1ccc(C)c(NC(=O)C2CC(=O)NC3=C2C(=O)CCC3)c1` (stereo unspecified) is 47.5 µg/mL (≈ 145 µM).
The figure for `O=C(CCNC(=O)c1ccccc1)Nc1nc2ccccc2s1` is 4.9 µg/mL (≈ 15.1 µM).
The figure for `O=C(NCC1CCCO1)c1ccc(NC(=O)c2cccc(Cl)c2)cc1` (stereo unspecified) is 2.5 µg/mL (≈ 6.97 µM); for `O=[N+]([O-])c1ccc(N2CCN(Cc3cccc([N+](=O)[O-])c3)CC2)cc1` it is 7.3 µg/mL (≈ 21.3 µM).
